Here are results for one substance from patent publication US11129910B2, “Specific conjugation linkers, specific immunoconjugates thereof, methods of making and uses such conjugates thereof” (priority 2016, dated 2021).

Assay [1] has as its system NCI-N87, a human gastric carcinoma cell line. In words: In vitro cytotoxicity (MTT) assay. The note with it: NCI-N87 cells, 120 hours incubation, read-out: N87 cell (Ag+) IC50. The class given is cell-based. As for the experimental part: The cell line used in the cytotoxicity assays was NCI-N87, a human gastric carcinoma cell line. The cells were grown in RPMI-1640 with 10% FBS. To run the assay, the cells (180 μl, 6000 cells) were added to each well in a 96-well plate and incubated for 24 hours at 37° C. with 5% CO2. Next, the cells were treated with test compounds (20 μl) at various concentrations in appropriate cell culture medium (total volume, 0.2 mL). The control wells contain cells and the medium but lack the test compounds. The plates were incubated for 120 hours at 37° C. with 5% CO2. MTT (5 mg/ml) was then added to the wells (20 μl) and the plates were incubated for 1.5 hr at 37° C. The medium was carefully removed and DMSO (180 μl) was added afterward. After it was shaken for 15 min, the absorbance was measured at 490 nm and 570 nm with a reference filter of 620 nm. The inhibition % was calculated according to the following equation: inhibition %=[1-(assay-blank)/(control-blank)]×100.

Assay [2] deals with human gastric carcinoma N-87 cell line tumor xenograft. Kind of assay: Antitumor activity in vivo, tumor xenograft model. Set-up: species or system BALB/c Nude mice. How it is done:
The in vivo efficacy of conjugates 196a, 201, 206, 354, 358, 370, 377, 385, and 407 along with T-DM1 were evaluated in a human gastric carcinoma N-87 cell line tumorxenograft models. Five-week-old female BALB/c Nude mice ([…]) were inoculated subcutaneously in the area under the right shoulder with N-87 carcinoma cells (5×10^6 cells/mouse) in 0.1 mL of serum-free medium. The tumors were grown for 8 days to an average size of 130 mm^3. The animals were then randomly divided into […] (6 animals per group). The first group of mice served as the control group and was treated with the phosphate-buffered saline vehicle. The remaining […] were treated with conjugates 196a, 201, 206, 354, 358, 370, 377, 385, 407 and T-DM1 respectively at dose of 6 mg/Kg administered intravenously. Three dimensions of the tumor were measured every 4 days and the tumor volumes were calculated using the formula tumor volume=1/2 (length×width×height). The weight of the animals was also measured at the same time. A mouse was sacrificed when any one of the following criteria was met: (1) loss of body weight of more than 20% from pretreatment weight, (2) tumor volume larger than 1500 mm^3, (3) too sick to reach food and water, or (4) skin necrosis. A mouse was considered to be tumor-free if no tumor was palpable.

As usually defined, the IC50 is the concentration needed to halve the response being measured.

For T-DM1, in assay [1], the half-inhibitory concentration (IC50) came out at 70 pM. Besides, the “duration of tumor growth inhibition” value in assay [2] (6 mg/Kg intravenously) worked out at 38 days. Also, the “elimination / eradication of the tumors” value in assay [2] (6 mg/Kg, i.v., one injection) is “not able to eliminate the tumors”.
